Patent US12617762B2, “Carboxy derivatives with antiinflamatory properties” (Sitryx Therapeutics Limited, priority 2019, dated 2026)
Where a name gives a salt, the structure may show the parent alone. Read-outs that look alike come from different tables or passages of the source.

Assays:
Format in all cases: cell-based
[1] = test system: IL-1β cytokine output from THP-1s; test: THP-1 AlphaLISA IL-1β cytokine inhibition assay; settings: for IC50: Homo sapiens; for IL-1β lowering, result in words: THP-1 IL-1β assay
How it was run: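 IL-1β release by AlphaLISA, expressed as % inhibition against +/− LPS controls on each plate. Differentiation: PMA, 72 h. Sequence: 30 min compound pre-treatment, LPS 24 h, Nigericin 1 h before supernatant harvest, all at 37° C./5% CO2.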

[2] = test system: IL-6 cytokine output from THP-1s; test: THP-1 AlphaLISA IL-6 cytokine inhibition assay; settings: Homo sapiens, LPS then nigericin
Description: The cytokine inhibition profiles of compounds of formula (I) were determined in a differentiated THP-1 cell assay. All assays were performed in RPMI-1640 growth medium (Gibco), supplemented with 10% fetal bovine serum (FBS; Gibco), 1% penicillin-streptomycin and 1% sodium pyruvate unless specified otherwise. The IL-1β cytokine inhibition assay was run in a background of differentiated THP-1 cells as described below. All reagents described were from Sigma-Aldrich unless specified otherwise. Compounds were prepared as 10 mM DMSO stocks.
THP-1 cells were expanded as a suspension up to 80% confluence in appropriate growth medium. Cells were harvested, suspended, and treated with an appropriate concentration of phorbol 12-myristate 13-acetate (PMA) over a 72 hr period (37° C./5% CO2).
Following 72 hrs of THP-1 cell incubation, cellular medium was removed and replaced with fresh growth media containing 1% of FBS. Working concentrations of compounds were prepared separately in 10% FBS treated growth medium and pre-incubated with the cells for 30 minutes (37° C./5% CO2). Following the 30 minute compound pre-incubation, THP-1s were treated with an appropriate concentration of LPS and the cells were subsequently incubated for a 24 hr period (37° C./5% CO2). An appropriate final concentration of Nigericin was then dispensed into the THP-1 plates and incubated for 1 hour (37° C./5% CO2) before THP-1 supernatants were harvested and collected in separate polypropylene 96-well holding plates.
Reagents from an IL-1β and IL-6 commercial kit (Perkin Elmer) were prepared and run according to the manufacturer's instructions. Subsequently, fluorescence signal detection in a microplate reader was measured (EnVision® Multilabel Reader, Perkin Elmer).
Percentage inhibition was calculated per cytokine by normalising the sample data to the high and low controls used within each plate (+/− LPS respectively).

[3] = test system: NRF2 (nuclear factor erythroid 2-related factor 2); test: NRF2 +/-GSH activation assay (DiscoverX PathHunter NRF2 translocation kit, U2OS cells)
How it was run: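 Activation is expressed as percent of plate DMF (high) versus no-DMF (low) controls, from luminescence after 6 h compound exposure at 37 °C of U2OS PathHunter cells. The +GSH condition used compound pre-incubated 30 min in 6 mM working GSH; −GSH cells received compound directly.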

[4] = THP-1, differentiated THP-1 cells, LPS then nigericin
[5] = THP-1, differentiated THP-1 cells
[6] = +GSH, 30 minute compound-GSH pre-incubation, read-out: NRF2 activation +GSH EC50
[7] = +GSH, normalised to DMF high control
[8] = −GSH, U2OS PathHunter cells, 6 hours compound treatment, read-out: NRF2 activation −GSH EC50
[9] = −GSH, normalised to DMF high control

Row | Compound | IC50 [1, 4] [µM] | IL-1β lowering, result in words [1] | IC50 [2, 5] [µM] | EC50 [3, 6] [µM] | NRF2 activation +GSH Emax [3, 7] [%] | EC50 [3, 8] [µM] | NRF2 activation −GSH Emax [3, 9] [%] | IC50 ([2]; differentiated THP-1 cells) [µM] | IC50 ([1]; THP-1, Table 3, head to head comparison of exo vs endo double bond compounds) [µM] | EC50 ([3]; −GSH, Table 5 exo vs endo comparison, read-out: −GSH EC50) [µM] | −GSH Emax ([3]; −GSH, normalised to DMF high control, Table 5 exo vs endo comparison) [%]
1 | C=C(Cc1nc(CC2CCCCC2)no1)C(=O)O [Example 32, 2-((3-(cyclohexylmethyl)-1,2,4-oxadiazol-5-yl)methyl)acrylic acid] | > 100 | not effective | > 100 | > 100 | 35 | 50.1 | 46 | – | – | – | –
2 | C=C(Cc1ncc(CCCCCCCC)cn1)C(=O)O [Example 106] | 67.8 | – | – | 24.6 | 101 | 18.6 | 143 | 39.3 | – | – | –
3 | C=C(C(=O)O)C1(c2nc(C(F)(F)c3ccc(C(F)(F)F)cc3)no2)CC1 [Example 173, 2-(1-(3-(difluoro(4-(trifluoromethyl)phenyl)methyl)-1,2,4-oxadiazol-5-yl)cyclopropyl)acrylic acid] | 7.6 | – | – | 61.1 | 2.1 | 52.5 | 64 | > 100 | – | – | –
4 | C=C(Cc1nc(Cc2ccc(C3(C(F)(F)F)CC3)cc2)no1)C(=O)O [Example 48, 2-((3-(4-(1-(trifluoromethyl)cyclopropyl)benzyl)-1,2,4-oxadiazol-5-yl)methyl)acrylic acid] | 40.2 | – | 38.5 | 50.3 | 61 | 31 | 120 | – | – | – | –
5 | C=C(Cc1cccc(Cc2ccc(Cl)cc2)n1)C(=O)O [Example 171, 2-((6-(4-chlorobenzyl)pyridin-2-yl)methyl)acrylic acid trifluoroacetic acid salt] | > 100 | – | > 100 | > 100 | 0 | > 100 | 5 | – | – | – | –
6 | C=C(Cc1nc(C2(c3ccc(OCCCC)cc3)CC2)no1)C(=O)O [Example 80, 2-((3-(1-(4-butoxyphenyl)cyclopropyl)-1,2,4-oxadiazol-5-yl)methyl)acrylic acid] | 37.2 | – | 9.6 | – | – | – | – | – | – | – | –
7 | C=C(Cc1nc(CCCCCCCC(F)F)no1)C(=O)O [Example 58, 2-((3-(8,8-difluorooctyl)-1,2,4-oxadiazol-5-yl)methyl)acrylic acid] | 36.9 | – | 16 | 30.6 | 105 | 26.4 | 149 | – | – | – | –
8 | C=C(C(=O)O)C(C)c1nc(C2(c3ccc(C(F)(F)F)cc3)CC2)no1 (stereo not shown) [Example 174, 2-methylene-3-(3-(1-(4-(trifluoromethyl)phenyl)cyclopropyl)-1,2,4-oxadiazol-5-yl)butanoic acid] | 4.2 | – | – | > 100 | 1.8 | > 100 | 24 | > 100 | – | – | –
9 | C=C(Cc1nc(C(C)(C)c2ccc(Cl)cc2)no1)C(=O)O [Example 30, 2-((3-(2-(4-chlorophenyl)propan-2-yl)-1,2,4-oxadiazol-5-yl)methyl)acrylic acid] | 53.3 | not effective | > 100 | > 100 | 12 | > 100 | 36 | – | – | – | –
10 | C=C(Cc1nc(C(C)(C)CCCCCC)no1)C(=O)O [Example 26, 2-((3-(2-methyloctan-2-yl)-1,2,4-oxadiazol-5-yl)methyl)acrylic acid] | 36.3 | – | 22.6 | 35.6 | 137 | 27.3 | 205 | – | – | – | –
11 | C=C(Cc1nc(CCCCCC(F)(F)CC(F)(F)F)no1)C(=O)O [Example 87, 2-((3-(6,6,8,8,8-pentafluorooctyl)-1,2,4-oxadiazol-5-yl)methyl)acrylic acid] | > 100 | not effective | 31.7 | 48.6 | 70 | 41.4 | 95 | – | – | – | –
12 | C=C(C(=O)O)C(C)(C)c1nc(C2(c3ccc(C(F)(F)F)cc3)CC2)no1 [Example 172] | 5.1 | – | – | > 100 | 7.6 | > 100 | 0 | 67.5 | – | – | –
13 | C=C(Cc1nc(CCc2ccc(CC)cc2)no1)C(=O)O [Example 41, 2-((3-(4-ethylphenethyl)-1,2,4-oxadiazol-5-yl)methyl)acrylic acid] | 45.4 | – | 22.5 | 39.7 | 103 | 31.7 | 135 | – | – | – | –
14 | C=C(Cc1cccc(C2(c3ccc(Cl)cc3)CC2)n1)C(=O)O [Example 175, 2-((6-(1-(4-chlorophenyl)cyclopropyl)pyridin-2-yl)methyl)acrylic acid] | 62.2 | – | – | > 100 | 4.0 | > 54.8 | 43 | 40.6 | – | – | –
15 | C=C(Cc1nc(C2(c3ccc(OC)c(Cl)c3)CC2)no1)C(=O)O [Example 140, 2-((3-(1-(3-chloro-4-methoxyphenyl)cyclopropyl)-1,2,4-oxadiazol-5-yl)methyl)acrylic acid] | 29.5 | – | – | – | – | – | – | > 100 | – | – | –
16 | C/C(=C\c1nc(C2(c3ccc(S(F)(F)(F)(F)F)cc3)CC2)no1)C(=O)O [Example 169] | > 31.6 | – | – | > 100 | 15.4 | > 100 | 43 | 20.2 | > 31.6 | > 100 | 43
17 | C=C(Cc1nc(CCC#CCCCC)no1)C(=O)O [Example 57, 2-((3-(oct-3-yn-1-yl)-1,2,4-oxadiazol-5-yl)methyl)acrylic acid] | > 100 | not effective | 24.1 | 49.9 | 56 | 41.1 | 102 | – | – | – | –
18 | C=C(Cc1nc(CCCCCC(C)C)no1)C(=O)O [Example 68, 2-((3-(6-methylheptyl)-1,2,4-oxadiazol-5-yl)methyl)acrylic acid] | 19.5 | – | 5.7 | – | – | – | – | – | – | – | –
19 | C=C(Cc1nc(Cc2ccc(CC(C)(C)C)cc2)no1)C(=O)O [Example 69, 2-((3-(4-neopentylbenzyl)-1,2,4-oxadiazol-5-yl)methyl)acrylic acid] | 48.6 | – | 10.1 | – | – | – | – | – | – | – | –
20 | C=C(Cc1nc(C2(c3cc(Cl)c(Br)c(Cl)c3)CC2)no1)C(=O)O [Example 176, 2-((3-(1-(4-bromo-3,5-dichlorophenyl)cyclopropyl)-1,2,4-oxadiazol-5-yl)methyl)acrylic acid] | 3.2 | – | – | – | – | 5.4 | 222 | 7.6 | – | – | –
21 | C=C(Cc1nc(-c2ccc(CCCC)cc2)co1)C(=O)O [Example 101, 2-((4-(4-butylphenyl)oxazol-2-yl)methyl)acrylic acid] | 52.4 | – | 4.6 | – | – | – | – | – | – | – | –
22 | C=C(C(=O)O)C1(c2nc(C3(c4ccc(C(F)(F)F)cc4)CC3)no2)CC1 [Example 156, 2-(1-(3-(1-(4-(trifluoromethyl)phenyl)cyclopropyl)-1,2,4-oxadiazol-5-yl)cyclopropyl)acrylic acid] | 5.3 | – | – | – | −16.4 | > 100 | 0 | 55.9 | – | – | –
23 | C=C(Cc1nc(-c2ccc(CCC(F)(F)F)cc2)no1)C(=O)O [Example 73, 2-((3-(4-(3,3,3-trifluoropropyl)phenyl)-1,2,4-oxadiazol-5-yl)methyl)acrylic acid] | > 100 | not effective | 10.4 | – | – | – | – | – | – | – | –
24 | C=C(Cc1nc(C2(c3ccc(OC(F)F)cc3)CC2)no1)C(=O)O [Example 78, 2-((3-(1-(4-(difluoromethoxy)phenyl)cyclopropyl)-1,2,4-oxadiazol-5-yl)methyl)acrylic acid] | 24.3 | – | > 100 | – | – | – | – | – | – | – | –
